Data taken from patent US9701631B2, “TIP60 inhibitors” (The Trustees Of The University Of Pennsylvania, priority 2010, dated 2017).

Legend:
[1] = tested on: Treg suppression of T cell proliferation; experiment: Treg suppression assay in vitro (T cell proliferation, 3 days, CFSE dye, flow cytometry); assay type: cell-based; details: for enhancement of suppression of Treg in vitro: 500x dilution of 10 mM solution (20 micromolar), FIG. 10; for percentage of proliferated cells: Treg:Teff=1:1
From the text: FIGS. 8A-D are flow cytometry dataplots showing the enhancement of TIP60 inhibitor B7 suppression of Treg in vitro. Individual peaks reflect number of cells divisions under the standard test conditions (3 days), where the cell populations are dyed with CFSE (carboxyfluorescen diacetate, succimidyl ester). FIG. 8A are the data for DMSO without B7; FIG. 8B are the data for B7-1000×; FIG. 8C are the data for B7-4000×; and FIG. 8D are the data for B7-8000. In each case, the 1000×/4000×/8000× refers to the dilution factor of the B7, from an original 10 mM solution of B7; e.g, 1000× represents a solution diluted by a factor of 1000, so as to result in a 10 micromolar solution. The numbers in the upper left corner of the plot (e.g., 88, 81, 74, 65, and 37 of FIG. 8A) refer to the measured percentage of proliferated cells.
FIGS. 10A-E are flow cytometry dataplots showing the enhancement of TIP60 inhibitors B7 suppression of Treg in vitro. FIG. 10A are the data for DMSO without any B7-type inhibitor; FIG. 10B are the data for B7-500×; FIG. 10C are the data for B7A-500×; FIG. 10D are the data for B7B-500; and FIG. 10E are the data for B7C-500×. In each case, the 500× refers to the dilution factor of the B7/B7A/B7B/B7C, from an original 10 mM solution of the compound; e.g, 500× represents a solution diluted by a factor of 500, so as to result in a 20 micromolar solution.
Several exemplary compounds of the present invention were screened at 10 μg/ml in vitro, at varying Treg:T cell ratios, using standard cell proliferation techniques (3 days, using CSFE dyes). Such techniques are well understood by those skilled in the art. For example, see Akimova T, Ge G, Golovina T, Mikheeva T, Wang L, Riley J L, Hancock W W., “Histone/protein deacetylase inhibitors increase suppressive functions of human FOXP3+ Tregs,” Clin Immunol. 2010 September; 136(3):348-63; Tao R, Hancock W W., Resistance of FOXP3+ regulatory T cells to Nur77-induced apoptosis promotes allograft survival,” PLoS One. 2008 May 28; 3(5):e2321; Tao R, Wang L, Murphy K M, Fraser C C, Hancock W W., “Regulatory T cell expression of herpesvirus entry mediator suppresses the function of B and T lymphocyte attenuator-positive effector T cells.,” J. Immunol. 2008 May 15; 180(10):6649-55; and Tao R, de Zoeten E F, Ozkaynak E, Chen C, Wang L, Porrett P M, Li B, Turka L A, Olson E N, Greene M I, Wells A D, Hancock W W., “Deacetylase inhibition promotes the generation and function of regulatory T cells,” Nat. Med. 2007 November; 13(11):1299-307 for the protocols used herein. Each of these references is incorporated by reference herein, at least for this purpose.
T cell proliferation was unimpaired in the absence of Treg cells (see left panels in FIG. 8A-D), but was increasingly impaired at increasing Treg concentration (for example, in FIG. 8A, increasing Treg:Tcell ratio from 0:1 to 1:1 reduced proliferation from 88% to 37% under otherwise identical conditions). […] Efficacy was also seen at 1 μg/ml for some compounds.

[2] = tested on: dextran sodium sulfate (DSS) model of colitis; experiment: DSS model of established colitis in mice, remedial treatment; assay type: in vivo
Description: FIGS. 12A-C are the result of experiments described in Example 5. […] FIG. 12C provide graphical data for weight loss, bleeding score, and stool consistency (i.e., higher score reflects higher levels of diarrhea), wherein the mice were first subjected to DSS irritation, then subset populations were remedially treated after 8 days with the compound having Structure B7.
In a first test, the effects of exposure to dextran sodium sulfate (DSS) were evaluated, which results in a partially CD4-dependent inflammatory model of colitis, in wildtype (WT) versus TIP60dn C57BL/6 mice (8 mice/group).
Data were also generated using the compound of Structure B7 in the DSS model, in an experiment designed to test the ability of TIP60 inhibitor therapy to reverse established colitis by waiting until mice had ˜15% weight loss. In marked contrast to use of carrier DMSO alone, TIP60 inhibitor therapy (2 mg/kg/d, i.p.) reversed weight loss (p<0.01), blood in the stool (p<0.01) and diarrhea (p<0.005) (see FIG. 12C) and maintained colon length (p<0.01).

FOXP3 = FOXP3 bound on chromatin in SZ-4 T cells (Western blot); assay type: cell-based; details: FIG. 9
TIP60 = target: T1, TIP60 (Homo sapiens, UniProt Q92993); experiment: TIP60 activity by acetylation of TIP60 or its substrate FOXP3 in transfected 293T cells (Ac-K immunoprecipitation, Western blot); assay type: cell-based; details: 4 hours
T1 construct: expressed in transfected cells; host or cells: 293T cells
Description: FIG. 11 illustrate the effect of B7G on TIP60. TIP60 activity was assessed by examining acetylation of TIP60 or its substrate FOXP3. Both TIP60 and FOXP3 were overexpressed in 293T cells. Acetylated proteins were first immunoprecipitated with the acetyl-lysine specific antibody Ac-K and then blotted with HRP conjugated antibodies to expression tags (HA for FOXP3 or FLAG for TIP60).
TIP60 is known to have acetyl transferase activity to acetylate itself (auto-acetylation) or substrates including FOXP3. To examine activity of B7G on TIP60, 293T cells were transfected with Flag-tagged TIP60 and HA-tagged FOXP3. 24 hours after transfection, cells were treated with various concentrations of B7G for 4 hours before cell lysates were collected. Acetylated proteins were precipitated by anti-acetyl lysine antibody Ac-K. FOXP3 and TIP60 in the lysate or precipitated by Ac-K antibody were identified by anti-HA-HRP and anti-FLAG-HRP respectively.

[3] = 2 mg/kg/d i.p., vs carrier DMSO, p<0.01

T1 sequence (Q92993 whole entry, species assumed): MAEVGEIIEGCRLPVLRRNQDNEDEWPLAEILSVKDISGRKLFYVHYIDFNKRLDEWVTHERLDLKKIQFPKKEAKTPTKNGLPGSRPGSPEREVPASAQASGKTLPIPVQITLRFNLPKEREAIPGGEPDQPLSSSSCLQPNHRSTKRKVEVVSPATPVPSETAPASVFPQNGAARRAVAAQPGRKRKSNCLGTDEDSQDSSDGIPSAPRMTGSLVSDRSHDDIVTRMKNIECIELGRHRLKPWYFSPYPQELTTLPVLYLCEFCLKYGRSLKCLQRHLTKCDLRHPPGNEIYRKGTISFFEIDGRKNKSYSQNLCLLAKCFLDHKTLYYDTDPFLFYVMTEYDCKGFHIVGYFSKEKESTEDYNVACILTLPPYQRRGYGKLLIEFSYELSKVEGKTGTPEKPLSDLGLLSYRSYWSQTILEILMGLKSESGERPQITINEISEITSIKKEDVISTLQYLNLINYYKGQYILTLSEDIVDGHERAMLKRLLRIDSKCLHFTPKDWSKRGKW

SMILES: Cc1ccc(NC(=O)C2CC(=O)N(CCc3ccc(Cl)cc3)C2)cc1 (stereo not drawn) [B7]
- enhancement of suppression of Treg in vitro [1]: enhancement
- T cell proliferation in the absence of Treg cells ([1]; Treg:Tcell 0:1, left panels FIG. 8A-D): unimpaired
- percentage of proliferated cells ([1]; FIG. 8B (B7-1000x dilution of 10 mM, 10 μM), highest B7 dosage): 25%
- percentage of proliferated cells ([1]; FIG. 8C (B7-4000x dilution of 10 mM), middle B7 dosage): 30%
- percentage of proliferated cells ([1]; FIG. 8D (B7-8000x dilution of 10 mM), lowest B7 dosage): 37%
- Treg activity (decreasing Tcell proliferation) ([1]; dose dependent, varying Treg:T cell ratios): enhanced the Treg activity
- weight loss ([2]; 2 mg/kg/d i.p., started at ~15% weight loss, vs carrier DMSO, p<0.01): reversed
- diarrhea ([2]; 2 mg/kg/d i.p., vs carrier DMSO, p<0.005): reversed
- blood in the stool [2, 3]: reversed
- colon length [2, 3]: maintained
- colon length relative to that of an unstressed control animal ([2]; single animal, 3% DSS then B7): about 94%
- spleen size relative to control animal ([2]; single remediated animal, 3% DSS then B7): comparable in size to that of the control

SMILES: COc1ccc(NC(=O)C2CC(=O)N(CCc3ccc(Cl)cc3)C2)cc1 (stereo not drawn) [B7B]
- enhancement of suppression of Treg in vitro [1]: enhancement

SMILES: O=C(Nc1ccc(Cl)cc1)C1CC(=O)N(CCc2ccc(Cl)cc2)C1 (stereo not drawn) [B7A]
- enhancement of suppression of Treg in vitro [1]: enhancement

SMILES: Cc1ccc2cc(NC(=O)C3CC(=O)N(CCc4ccc(Cl)cc4)C3)ccc2n1 (stereo not drawn) [B7C]
- enhancement of suppression of Treg in vitro [1]: enhancement
- FOXP3 bound on chromatin (FOXP3): intervening with FOXP3 bound on chromatin

SMILES: COc1ccc(CCN2CC(C(=O)Nc3ccc(F)c(Cl)c3)CC2=O)cc1OC (stereo not drawn) [B7G]
- Acetylated FOXP3 (HA-HRP blot of Ac-K precipitated proteins) (TIP60; 32 μg/ml): reduced significantly
- Acetylated TIP60 (FLAG-HRP blot of Ac-K precipitated proteins) (TIP60; 32 μg/ml): reduced significantly
- TIP60 auto-acetylation (TIP60; lower concentration than 32 μg/ml): slightly increase
- FOXP3 expression level in total cell lysate (TIP60; various concentrations): not significantly affected
- TIP60 expression level in total cell lysate (TIP60; various concentrations): not significantly affected
